Where a name gives a salt, the structure may show the parent alone.
Target: T1, human neuropeptide Y5 receptor (Homo sapiens, UniProt Q15761)
T1 construct: expressed in transfected cells; host or cells: HEK-293 (stably transfected, G-418 selected); membranes
T1 sequence (Q15761 1-445): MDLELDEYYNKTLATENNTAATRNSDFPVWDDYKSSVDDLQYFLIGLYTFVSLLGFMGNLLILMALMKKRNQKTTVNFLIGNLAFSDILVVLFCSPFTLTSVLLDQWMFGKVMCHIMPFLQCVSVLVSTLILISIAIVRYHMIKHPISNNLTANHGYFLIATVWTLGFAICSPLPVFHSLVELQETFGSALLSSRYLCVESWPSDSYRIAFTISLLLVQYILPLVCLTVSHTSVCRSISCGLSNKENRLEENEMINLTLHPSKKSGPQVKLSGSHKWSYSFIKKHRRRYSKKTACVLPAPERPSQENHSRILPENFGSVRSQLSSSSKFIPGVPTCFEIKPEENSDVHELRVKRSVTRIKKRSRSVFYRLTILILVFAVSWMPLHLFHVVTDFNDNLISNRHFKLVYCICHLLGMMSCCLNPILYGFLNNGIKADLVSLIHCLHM
Assay: NPY5 HTS centrifugation assay: competition with 125I-PYY for binding to membranes of NPY5-transfected HEK293 cells
Settings: 80 pM 125I-PYY, 1 hr room temperature; for % Inh @ 300 nM (% Inhibition of 125I-PYY Binding) / inhibition at 0.3 µM: 300 nM compound; for % Inh @ 3 uM (% Inhibition of 125I-PYY Binding) / inhibition at 3 µM: 3 uM compound; for inhibition at 0.3 µM: read-out: % Inh @ 300 nM (% Inhibition of 125I-PYY Binding); for inhibition at 3 µM: read-out: % Inh @ 3 uM (% Inhibition of 125I-PYY Binding)
Description: The compounds described in this invention were evaluated for binding to the human neuropeptide Y5 receptor.
Stably transfected cells served as the source for the membranes for the NPY5 receptor binding assay.
NPY5-transfected HEK293 cells were grown to confluence in 150 cm^2 culture dishes. […] Cells were then incubated in phosphate-buffered saline without Calcium and without Magnesium, supplemented with 2 mM EDTA. Cells were incubated for 10 minutes at room temperature and the cells were collected by repetitive pipeting. Cells were formed into pellets and then frozen at −80 until needed. Frozen pellets were homogenized with a polytron at full speed for 12 seconds in a homogenization buffer (20 mM Tris HCl, 5 mM EDTA, pH 7.4). Homogenates were centrifuged for 5 minutes at 4 C at 200 g. Supernatants were transferred to corex tubes and centrifuged for 25 minutes at 28,000 g. Pellets were re-suspended in Binding (20 mM HEPES, 10 mM NaCl, 0.22 mM KH2PO4, 1.3 mM CaCl2, 0.8 mM MgSO4, pH 7.4). Membranes were kept on ice until use.
Compounds to be tested were prepared as 10× stocks in binding buffer and added first to assay tubes (RIA vials, Sarstedt). […] To each tube is added 100 μL of membranes and the mixture is agitated by pipeting 2 times. Samples are incubated for 1 hr at room temperature. Aluminum cast plates (Sarstedt) containing the vials are then centrifuged 10 minutes at 3200 rpm in a Sorvall RT6000. Supernatant is then aspirated. To each vial 400 μL PBS is added and this is then aspirated again. Vials are then put in carrier polypropylene 12×75 tube and counted in gamma counter (Packard). Non-specific binding is determined in the presence of 300 nM NPY. […] These operations are known to those skilled in the art.

Structure (SMILES) | % Inh @ 300 nM (% Inhibition of 125I-PYY Binding) | % Inh @ 3 uM (% Inhibition of 125I-PYY Binding) | inhibition at 0.3 µM | inhibition at 3 µM
O=C(NC(CCCCNS(=O)(=O)c1ccccc1)C(=O)NC1CCc2ccccc2C1Cc1cccnc1)c1ccccc1 (mixture of isomers) [Compound 39] | 70% | 95% | – | –
O=C(CN1CCC(NS(=O)(=O)c2ccccc2)C1)N[C@H]1CCc2cc(F)ccc2[C@H]1Cc1cccnc1 (relative stereo) [Compound 17, 3-[(Phenylsulfonyl)amino]-N-[cis-1,2,3,4-tetrahydro-6-fluoro-1-(3-pyridinylmethyl)-2-naphthalenyl]-1-pyrrolidineacetamide bis-trifluoroacetate] | – | – | 98% | 102%
NC(CCCCNS(=O)(=O)c1ccccc1)C(=O)NC1CCc2ccccc2C1Cc1cccnc1 (single isomer, unassigned) [Compound 34a] | 87% | 97% | – | –
CC(=O)NC(CCCCNS(=O)(=O)c1ccccc1)C(=O)NC1CCc2ccccc2C1Cc1cccnc1 (single isomer, unassigned) [Compound 38a] | 80% | 104% | – | –
O=C(CN1CCC(NC(=O)c2ccccc2)C1)NC1CCc2cc(F)ccc2C1Cc1cccnc1 (mixture of isomers) [Compound 60] | 86% | 109% | – | –
O=C(CN1CCC(NC(=O)c2ccccc2)CC1)NCC(Cc1cccnc1)c1ccc(F)cc1 (centres unmarked) [Compound 92] | 92% | 104% | – | –
CC(C)(C)OC(=O)NC1CCN(CC(=O)NC2CCc3cc(F)ccc3C2Cc2cccnc2)C1 (mixture of isomers) [Compound 57] | 87% | 93% | – | –
O=C(CN1CCC(NS(=O)(=O)c2ccccc2)C1)NC1CCc2cc(F)ccc2C1Cc1cccnc1 (mixture of isomers) [Compound 58] | 93% | 91% | – | –
COc1ccc2c(c1)CCC(NC(=O)CN1CCC(n3c(=O)[nH]c4ccccc43)CC1)C2 (centres unmarked) [Compound 82] | 63% | 85% | – | –
NC(CCCCNS(=O)(=O)c1ccccc1)C(=O)NC1CCc2ccccc2C1Cc1cccnc1 (single isomer, unassigned) [Compound 34b] | 61% | 99% | – | –
O=C(CN1CCC(NC(=O)Nc2ccccc2)CC1)NC1CCc2ccccc2C1Cc1cccnc1 (centres unmarked) [Compound 51] | 85% | 102% | – | –
COc1ccccc1N1CCN(CC(=O)NC2CCc3ccccc3C2Cc2cccnc2)CC1 (centres unmarked) [Compound 93] | 81% | 97% | – | –
CC(C)(C)OC(=O)NC1CCN(CC(=O)NC2CCc3cc(F)ccc3C2Cc2cccnc2)C1 (mixture of isomers) [Compound 56] | 88% | 94% | – | –
COc1ccc2c(c1)CC[C@H](NC(=O)CN1CCC(n3c(=O)[nH]c4ccccc43)CC1)[C@@H]2Cc1cccnc1 (relative stereo) [Compound 19, 4-(2,3-Dihydro-2-oxo-1H-benzimidazol-1-yl)-N-[cis-1,2,3,4-tetrahydro-6-methoxy-1-(3-pyridinylmethyl)-2-naphthalenyl]-1-piperidineacetamide Bis-hydrochloride] | – | – | 69% | 101%
O=C(CN1CCC(NS(=O)(=O)c2ccccc2F)CC1)NCC(Cc1cccnc1)c1ccc(F)cc1 (centres unmarked) [Compound 30, N-[2-(4-Fluorophenyl)-3-(3-pyridinyl)propyl]-4-[(2-fluorophenylsulfonyl)amino]-1-piperidineacetamide bis-trifluoroacetate] | – | – | 100% | 110%
O=C(CN1CCC(NC(=O)Nc2ccccc2)CC1)NC1CCc2cc(F)ccc2C1Cc1cccnc1 (centres unmarked) [Compound 45] | 68% | 95% | – | –
